Measurements as given in the supplement of paper PMC10307832.

Key:
Test in all cases: relative viability (nuclei count vs DMSO), 5 days (fraction); higher = more cells survive
[1] = compound: C1=CC2=NC=CN=C2C=C1/C=C/3\C(=O)NC(=O)S3 + CC(C)C[C@H](NC(=O)[C@H](Cc1ccccc1)NC(=O)c1cnccn1)B(O)O [Bortezomib] (partner 0.002 µM)
Procedure, shortened: (§1)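 Relative viability divides the nuclei count in treated wells by that in vehicle wells. Lung cancer cell lines were seeded in 1536-well plates, dosed by pin tool the next day, and fixed and stained after 5 days in one step with final 0.05% Triton X-100, 1% formaldehyde and 1 ug/ml Hoechst. Dosing was a single drug or a fixed anchor-drug dose plus five library-drug doses (not always all listed) in √10 steps, and values are medians of duplicate plates imaged at 4×.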

[2] = compound: C1=CC2=NC=CN=C2C=C1/C=C/3\C(=O)NC(=O)S3 + CCNC(=O)c1noc(-c2cc(C(C)C)c(O)cc2O)c1-c1ccc(CN2CCOCC2)cc1 [Luminespib] (partner 0.01 µM)
Procedure, shortened: as §1

[3] = compound: C1=CC2=NC=CN=C2C=C1/C=C/3\C(=O)NC(=O)S3 + O=C(c1cc(Cc2n[nH]c(=O)c3ccccc23)ccc1F)N1CCN(C(=O)C2CC2)CC1 [Olaparib] (partner 8 µM)
Procedure, shortened: as §1

BGJ398 + Crizotinib = compound: CCN1CCN(c2ccc(Nc3cc(N(C)C(=O)Nc4c(Cl)c(OC)cc(OC)c4Cl)ncn3)cc2)CC1 [BGJ398] + C[C@@H](Oc1cc(-c2cnn(C3CCNCC3)c2)cnc1N)c1c(Cl)ccc(F)c1Cl [Crizotinib] (partner 1 µM)
Procedure, shortened: as §1

## UMC-11
[1]; first compound 0.02 µM
  relative viability: 0.869
[1]; first compound 0.06325 µM
  relative viability: 0.965
[1]; first compound 0.2 µM
  relative viability: 0.523
[1]; first compound 0.6325 µM
  relative viability: 0.591
[1]; first compound 2 µM
  relative viability: 0.997
[2]; first compound 0.02 µM
  relative viability: 0.992
[2]; first compound 0.06325 µM
  relative viability: 1.11
[2]; first compound 0.2 µM
  relative viability: 1.05
[2]; first compound 0.6325 µM
  relative viability: 0.956
[2]; first compound 2 µM
  relative viability: 1.16
[3]; first compound 0.02 µM
  relative viability: 0.336
[3]; first compound 0.06325 µM
  relative viability: 0.423
[3]; first compound 0.2 µM
  relative viability: 0.391
[3]; first compound 0.6325 µM
  relative viability: 0.336
[3]; first compound 2 µM
  relative viability: 0.379
BGJ398 + Crizotinib; first compound 0.01 µM
  relative viability: 0.507
BGJ398 + Crizotinib; first compound 0.03162 µM
  relative viability: 0.585
BGJ398 + Crizotinib; first compound 0.1 µM
  relative viability: 0.539
BGJ398 + Crizotinib; first compound 0.3162 µM
  relative viability: 0.579
BGJ398 + Crizotinib; first compound 1 µM
  relative viability: 0.53
